According to patent US8188144B2, “In vitro preservation of living animal cells and compounds suitable for use in the preservation of living animal cells” (Antoxis Limited, priority 2007, dated 2012):

System: mouse embryonic stem cells
Assay: MTT cell viability assay of tert-butyl hydroperoxide oxidative stress-induced cytotoxicity in mouse embryonic stem cells
Assay type: cell-based
Details: for viability at 0.1 µM / viability at 0.5 µM / viability at 1 µM: Mus musculus, Embryonic stem cell, read-out: Ave. Cell Viability (%)
Method: Oxidative stress and related free radical damage can be induced in cells, including stem cells, by exposing the cells to tert-butyl hydroperoxide in the incubation medium. Decomposition of the peroxide over a period of time leads to a steady generation of reactive oxygen species. This in turn triggers a cascade of free radical-mediated events that eventually leads to irreversible damage and ultimately cell death as the natural antioxidant defences are overwhelmed.
The extent of cytotoxicity induced by peroxide exposure can be quantified using a number of well-documented assays, including the MTT protocol. This is a colorometric assay that measures the reduction of MTT to formazan, a process that can only occur when cells are viable. Thus, by comparing the amount of formazan produced in control cells, against cells treated with a cytotoxic agent, such as tert-butyl hydroperoxide, the reduction in cell viability induced by the agent can be measured.
The assay can be further extended to determine the effectiveness of compounds to provide protection against cytotoxic agents. In the case of the novel antioxidants, the subject of this patent, this can be achieved by pre-incubation of the cells with the antioxidant agent prior to induction of oxidative stress by tert-butyl hydroperoxide. Thus a comparison of the amount of formazan produced by control cells against cells with the cytotoxic peroxide present, plus or minus pre-incubation with the novel antioxidant, can determine the extent by which the compound can retain cell viability.
A 96-well plate was seeded with approximately 20,000 mouse embryonic stem cells per well and left to grow at 37° C. (5% CO2) overnight. Antioxidants, denoted as Exp.1, Exp.2 and Exp.3, were dissolved in DMSO and added to the wells in triplicate 30 min before induction of oxidative stress with tert-butyl hydroperoxide. The resultant concentrations of the tested antioxidants in the wells were 0.1, 0.5 and 1 μM. Controls were also initiated using cell medium (DMEM^+)/DMSO. After the 30 min pre-incubation period, tert-butyl peroxide was added to the wells to provide a final concentration of 400 μM. The plated cells were returned to the incubator (37° C.) for 90 min. After this period, 20 μL of the MTT reagent solution was added to all of the wells. The plate was then further incubated for a further 3 hours. The supernatant was removed from the wells and 200 μl DMSO added to all wells to solubilise reduced MTT (formazan). The plate was protected from light and shaken for 10 min. The supernatant was removed from the wells and aliquoted into a new 96-well plate for the colorometric measurements. Absorbance was determined at 540 nm.
The average corrected absorbance. (0.737) for the DMEM^+ control (which contained no antioxidant compounds or tert-butyl hydroperoxide) represented the 100% viability benchmark. Comparison of the corrected absorbances in the various well treatment regimes relative to that of the DMEM^+ control enabled the resultant effects on cell viability to be calculated. tBHP=tert-butyl hydroperoxide.

Row | Structure (SMILES) | viability at 0.1 µM | viability at 0.5 µM | viability at 1 µM | Ave. Cell Viability (%) (mouse, 120 min, 1 μM) | Ave. Cell Viability (%) (400 μM tBHP alone, no antioxidant, 90 min, relative to DMEM+ control = 100%) | Ave. Cell Viability (%) (400 μM tBHP alone, no antioxidant, 90 min, relative to DMEM+ control = 100%, listed as tert-butyl hydroperoxide)
1 | CCCCCCCCCCCCc1cc(=O)c(O)c(-c2cc(O)c(O)c(O)c2)o1 [Exp.2] | 60.5% | 94.8% | 96.9% | 104.1% |  | 
2 | CC(C)(C)OO [tBHP, tert-butyl hydroperoxide, reference compound] |  |  |  |  | 37.0% | 37%
3 | CCCCCCCCc1cc(=O)c(O)c(-c2cc(O)c(O)c(O)c2)o1 [Exp.3] | 34.4% | 55.5% | 70.4% |  |  | 
4 | CCCCCCCCCCc1ccc2c(=O)c(O)c(-c3cc(O)c(O)c(O)c3)oc2c1 [Exp.1] | 56.9% | 86.5% | 84.8% | 107.4% |  | 
